# Measurements: patent publication US20200055839A1 (priority 2017, published 2020)
# System: NL-RLuc virus
# Test: Inhibition of HIV replication (NL-RLuc virus, luciferase readout in MT-2 cells)
# Format: cell-based
# Details: Human immunodeficiency virus 1, MT2, 120 h, MT-2 cells infected with NL-RLuc virus, 5 days of incubation, 10% FBS, at least 2 experiments
# How it was run: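 EC50 derived via median effect equation from at least 2 experiments, using luciferase expression as virus-growth readout. Replication-competent NL-RLuc reporter virus (nef partly replaced by Renilla luciferase) infected MT-2 cells with serial compound dilutions; 5-day incubation in RPMI 1640 plus 10% FBS.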
row,Structure (SMILES),EC50
1,"Cc1ncc(-c2cccc(OCCc3ccc(F)cc3)n2)c(N2CCC(C)(C)CC2)c1[C@H](OC(C)(C)C)C(=O)O [Example 280, (S)-2-(tert-Butoxy)-2-(4′-(4,4-dimethylpiperidin-1-yl)-6-(4-fluorophenethoxy)-6′-methyl-[2, 3′-bipyridin]-5′-yl)acetic acid]",20 nM
2,"Cc1cccc(Cl)c1COc1ccc(-c2cnc(C)c([C@H](OC(C)(C)C)C(=O)O)c2N2CCC(C)(C)CC2)nc1 [Example 283, (S)-2-(tert-Butoxy)-2-(5-((2-chloro-6-methylbenzyl)oxy)-4′-(4,4-dimethylpiperidin-1-yl)-6′-methyl-[2, 3′-bipyridin]-5′-yl)acetic acid]",3 nM
3,"Cc1cccc(Cl)c1CCOc1ccc(-c2cnc(C)c([C@H](OC(C)(C)C)C(=O)O)c2N2CCC(C)(C)CC2)nc1 [Example 284, (S)-2-(tert-Butoxy)-2-(5-(2-chloro-6-methylphenethoxy)-4′-(4,4-dimethylpiperidin-1-yl)-6′-methyl-[2, 3′-bipyridin]-5′-yl)acetic acid]",3 nM
4,"Cc1ncc(-c2ccc(OCCc3ccccc3)cn2)c(N2CCC(C)(C)CC2)c1[C@H](OC(C)(C)C)C(=O)O [Example 285, (S)-2-(tert-Butoxy)-2-(4′-(4,4-dimethylpiperidin-1-yl)-6′-methyl-5-phenethoxy-[2, 3′-bipyridin]-5′-yl)acetic acid]",0.6 nM
5,"Cc1cc(F)ccc1CCOc1ccc(-c2cnc(C)c([C@H](OC(C)(C)C)C(=O)O)c2N2CCC(C)(C)CC2)nc1 [Example 286, (S)-2-(tert-Butoxy)-2-(4′-(4,4-dimethylpiperidin-1-yl)-5-(4-fluoro-2-methylphenethoxy)-6′-methyl-[2, 3′-bipyridin]-5′-yl)acetic acid]",1 nM
6,"Cc1ncc(-c2ccc(O)cn2)c(N2CCC(C)(C)CC2)c1[C@H](OC(C)(C)C)C(=O)O [Example 287, (S)-2-(tert-Butoxy)-2-(4′-(4,4-dimethylpiperidin-1-yl)-5-hydroxy-6′-methyl-[2, 3′-bipyridin]-5′-yl)acetic acid]",379 nM
7,"Cc1ncc(-c2ccc(OCc3ccccc3)cn2)c(N2CCC(C)(C)CC2)c1[C@H](OC(C)(C)C)C(=O)O [Example 288, (S)-2-(5-(Benzyloxy)-4′-(4,4-dimethylpiperidin-1-yl)-6′-methyl-[2, 3′-bipyridin]-5′-yl)-2-(tert-butoxy)acetic acid]",1 nM
8,"Cc1ccccc1CCOc1ccc(-c2cnc(C)c([C@H](OC(C)(C)C)C(=O)O)c2N2CCC(C)(C)CC2)nc1 [Example 289, (2S)-2-(tert-butoxy)-2-[4′-(4,4-dimethylpiperidin-1-yl)-6′-methyl-5-[2-(2-methylphenyl)ethoxy]-[2,3′-bipyridine]-5′-yl]acetic acid]",1 nM
9,"Cc1cccc(CCOc2ccc(-c3cnc(C)c([C@H](OC(C)(C)C)C(=O)O)c3N3CCC(C)(C)CC3)nc2)c1 [Example 290, (2S)-2-(tert-butoxy)-2-[4′-(4,4-dimethylpiperidin-1-yl)-6′-methyl-5-[2-(3-methylphenyl)ethoxy]-[2,3′-bipyridine]-5′-yl]acetic acid]",1 nM
10,"COc1ccc(CCOc2ccc(-c3cnc(C)c([C@H](OC(C)(C)C)C(=O)O)c3N3CCC(C)(C)CC3)nc2)cc1C [Example 291, (2S)-2-(tert-butoxy)-2-[4′-(4,4-dimethylpiperidin-1-yl)-5-[2-(4-methoxy-3-methylphenyl)ethoxy]-6′-methyl-[2,3′-bipyridine]-5′-yl]acetic acid]",2 nM
11,"COc1ccc(CCOc2ccc(-c3cnc(C)c([C@H](OC(C)(C)C)C(=O)O)c3N3CCC(C)(C)CC3)nc2)c(C)c1 [Example 292, (2S)-2-(tert-butoxy)-2-[4′-(4,4-dimethylpiperidin-1-yl)-5-[2-(4-methoxy-2-methylphenyl)ethoxy]-6′-methyl-[2,3′-bipyridine]-5′-yl]acetic acid]",2 nM
12,"COc1ccc(CCOc2ccc(-c3cnc(C)c([C@H](OC(C)(C)C)C(=O)O)c3N3CCC(C)(C)CC3)nc2)cc1 [Example 293, (2S)-2-(tert-butoxy)-2-[4′-(4,4-dimethylpiperidin-1-yl)-5-[2-(4-methoxyphenyl)ethoxy]-6′-methyl-[2,3′-bipyridine]-5′-yl]acetic acid]",1 nM
13,"Cc1cc(CCOc2ccc(-c3cnc(C)c([C@H](OC(C)(C)C)C(=O)O)c3N3CCC(C)(C)CC3)nc2)ccc1F [Example 294, (2S)-2-(tert-butoxy)-2-[4′-(4,4-dimethylpiperidin-1-yl)-5-[2-(4-fluoro-3-methylphenyl)ethoxy]-6′-methyl-[2,3′-bipyridine]-5′-yl]acetic acid]",2 nM
14,"Cc1ccc(F)cc1CCOc1ccc(-c2cnc(C)c([C@H](OC(C)(C)C)C(=O)O)c2N2CCC(C)(C)CC2)nc1 [Example 295, (2S)-2-(tert-butoxy)-2-[4′-(4,4-dimethylpiperidin-1-yl)-5-[2-(5-fluoro-2-methylphenyl)ethoxy]-6′-methyl-[2,3′-bipyridine]-5′-yl]acetic acid]",2 nM
15,"COc1ccccc1CCOc1ccc(-c2cnc(C)c([C@H](OC(C)(C)C)C(=O)O)c2N2CCC(C)(C)CC2)nc1 [Example 296, (2S)-2-(tert-butoxy)-2-[4′-(4,4-dimethylpiperidin-1-yl)-5-[2-(2-methoxyphenyl)ethoxy]-6′-methyl-[2,3′-bipyridine]-5′-yl]acetic acid]",2 nM
16,"Cc1ncc(-c2ccc(OCCc3c(Cl)cccc3Cl)cn2)c(N2CCC(C)(C)CC2)c1[C@H](OC(C)(C)C)C(=O)O [Example 297, (2S)-2-(tert-butoxy)-2-{5-[2-(2,6-dichlorophenyl)ethoxy]-4′-(4,4-dimethylpiperidin-1-yl)-6′-methyl-[2,3′-bipyridine]-5′-yl}acetic acid]",1 nM
17,"Cc1ncc(-c2ccc(OCCc3c(F)cc(F)cc3F)cn2)c(N2CCC(C)(C)CC2)c1[C@H](OC(C)(C)C)C(=O)O [Example 298, (2S)-2-(tert-butoxy)-2-[4′-(4,4-dimethylpiperidin-1-yl)-6′-methyl-5-[2-(2,4,6-trifluorophenyl)ethoxy]-[2,3′-bipyridine]-5′-yl]acetic acid]",1 nM
18,"Cc1ncc(-c2ccc(OCCc3ccc(F)c(F)c3)cn2)c(N2CCC(C)(C)CC2)c1[C@H](OC(C)(C)C)C(=O)O [Example 299, (2S)-2-(tert-butoxy)-2-{5-[2-(3,4-difluorophenyl)ethoxy]-4′-(4,4-dimethylpiperidin-1-yl)-6′-methyl-[2,3′-bipyridine]-5′-yl}acetic acid]",1 nM
19,"Cc1ccc(CCOc2ccc(-c3cnc(C)c([C@H](OC(C)(C)C)C(=O)O)c3N3CCC(C)(C)CC3)nc2)cc1 [Example 300, (2S)-2-(tert-butoxy)-2-[4′-(4,4-dimethylpiperidin-1-yl)-6′-methyl-5-[2-(4-methylphenyl)ethoxy]-[2,3′-bipyridine]-5′-yl]acetic acid]",1 nM
20,"COc1cccc(CCOc2ccc(-c3cnc(C)c([C@H](OC(C)(C)C)C(=O)O)c3N3CCC(C)(C)CC3)nc2)c1 [Example 301, (2S)-2-(tert-butoxy)-2-[4′-(4,4-dimethylpiperidin-1-yl)-5-[2-(3-methoxyphenyl)ethoxy]-6′-methyl-[2,3′-bipyridine]-5′-yl]acetic acid]",1 nM
